Source: patent publication US20180244611A1, “Modulators of the Cystic Fibrosis Transmembrane Conductance Regulator Protein and Methods of Use” (AbbVie S.à.r.l., priority 2017, published 2018)

Experiments:
F508delCFTR [1] = target: T1, F508delCFTR (Homo sapiens, UniProt P13569, DEL508-508); test: Cell Surface Expression-Horse Radish Peroxidase (CSE-HRP) assay, test compound with co-corrector; type: cell-based; conditions: for EC50: CSE-HRP assay, test compound with 2 μM co-corrector; for Maximum % activity (with co-corrector): maximum at any tested concentration, normalized to on-plate positive control, with 2 μM co-corrector;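 for Maximum % activity (with co-corrector): percent of 2 µM positive control corrector over DMSO; co-corrector is that same compound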
T1 construct: expressed in transfected cells; host or cells: CFBE41o- human lung-derived epithelial cells (CFBE41o-F508delCFTR-HRP), doxycycline-inducible
T1 sequence (P13569 with tags, fused parts or gaps DEL508-508): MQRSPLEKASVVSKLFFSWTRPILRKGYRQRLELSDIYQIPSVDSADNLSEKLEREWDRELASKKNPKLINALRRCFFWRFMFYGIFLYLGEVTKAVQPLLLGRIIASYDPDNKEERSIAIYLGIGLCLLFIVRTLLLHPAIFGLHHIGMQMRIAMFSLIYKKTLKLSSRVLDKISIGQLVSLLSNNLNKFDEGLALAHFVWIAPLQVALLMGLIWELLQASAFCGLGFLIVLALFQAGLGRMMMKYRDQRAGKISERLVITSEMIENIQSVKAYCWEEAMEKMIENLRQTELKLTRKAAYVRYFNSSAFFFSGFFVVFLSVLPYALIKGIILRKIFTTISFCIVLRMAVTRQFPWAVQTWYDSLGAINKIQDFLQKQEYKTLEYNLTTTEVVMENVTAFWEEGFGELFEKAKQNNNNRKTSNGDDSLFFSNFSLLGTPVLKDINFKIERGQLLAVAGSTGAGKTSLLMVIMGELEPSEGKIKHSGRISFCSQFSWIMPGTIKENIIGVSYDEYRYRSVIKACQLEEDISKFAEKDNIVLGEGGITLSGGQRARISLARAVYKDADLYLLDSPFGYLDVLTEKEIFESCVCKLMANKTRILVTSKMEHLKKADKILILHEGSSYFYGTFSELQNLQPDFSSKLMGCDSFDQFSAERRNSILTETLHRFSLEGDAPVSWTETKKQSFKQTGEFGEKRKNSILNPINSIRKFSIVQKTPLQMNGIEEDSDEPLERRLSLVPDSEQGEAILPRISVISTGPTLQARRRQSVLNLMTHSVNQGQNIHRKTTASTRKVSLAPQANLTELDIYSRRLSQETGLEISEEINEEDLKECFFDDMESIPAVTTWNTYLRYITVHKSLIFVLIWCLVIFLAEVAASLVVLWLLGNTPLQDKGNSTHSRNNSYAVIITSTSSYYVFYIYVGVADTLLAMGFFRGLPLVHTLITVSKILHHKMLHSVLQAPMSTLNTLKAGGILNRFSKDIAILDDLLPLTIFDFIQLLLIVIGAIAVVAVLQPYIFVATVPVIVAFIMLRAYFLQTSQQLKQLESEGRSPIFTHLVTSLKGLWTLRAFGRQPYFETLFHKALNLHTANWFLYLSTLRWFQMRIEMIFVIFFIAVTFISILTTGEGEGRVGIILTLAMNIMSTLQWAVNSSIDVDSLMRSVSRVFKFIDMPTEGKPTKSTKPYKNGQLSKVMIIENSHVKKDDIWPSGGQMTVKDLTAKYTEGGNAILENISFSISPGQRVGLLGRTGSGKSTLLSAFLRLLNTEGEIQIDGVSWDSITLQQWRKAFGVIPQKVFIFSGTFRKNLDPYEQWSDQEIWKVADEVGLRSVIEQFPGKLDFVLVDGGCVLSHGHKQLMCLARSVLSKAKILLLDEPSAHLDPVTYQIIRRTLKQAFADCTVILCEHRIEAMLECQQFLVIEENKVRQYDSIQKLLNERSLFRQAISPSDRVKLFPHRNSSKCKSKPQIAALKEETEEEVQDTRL
In short: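 Surface-expression read-out: luminol luminescence from an HRP tag in the fourth exofacial loop of F508delCFTR, in doxycycline-induced (0.5 μg/mL, 72 h) CFBE41o- cells. Compound plus 2 μM co-corrector added for 18-24 h at 33° C., 8-point 3-fold series up to 20 μM. EC50 from a sigmoidal fit with variable Hill slope, normalised to positive control, triplicate plates.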

F508delCFTR [2] = target: T1, F508delCFTR; test: Cell Surface Expression-Horse Radish Peroxidase (CSE-HRP) assay, test compound without co-corrector; type: cell-based; conditions: for EC50: CSE-HRP assay, test compound without co-corrector; for Emax: maximum at any tested concentration, normalized to on-plate positive control, without co-corrector;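 for Emax: percent of on-plate 2 µM positive control corrector response over DMSO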
In short: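 Compound without co-corrector was tested at eight 3-fold concentrations, top 20 μM, for 18-24 h at 33° C on doxycycline-induced (0.5 μg/mL, 72 h) CFBE41o- F508delCFTR-HRP cells. After DPBS washes, luminol luminescence gave % activity relative to on-plate positive control minus DMSO; EC50 came from triplicate-plate sigmoidal fitting.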

SMILES	EC50 (F508delCFTR [1]) [µM]	Maximum % activity (with co-corrector) (F508delCFTR [1])	EC50 (F508delCFTR [2]) [µM]	Emax (F508delCFTR [2]) [%]
COc1ccc(-c2cccc(OC(F)(F)F)c2)c2c1CCCC2C(=O)NS(=O)(=O)c1cccc2ccccc12 (stereo not drawn) [III-148]	< 3	+++ (≥350)	< 3	≥ 150
O=C(NS(=O)(=O)c1cccc2ccccc12)C1CCc2c(Br)ccc(O)c21 (stereo not drawn) [III-152]	3 to 10	++ (≥150 and <350)	3 to 10	< 50
COc1ccc(N2CCOCC2)c2c1CCCC2C(=O)NS(=O)(=O)c1cccc2ccccc12 (stereo not drawn) [III-153]	≥ 10	+ (<150)	≥ 10	< 50
COc1ccc(-c2ccc(C(F)(F)F)cc2)c2c1CCCC2C(=O)NS(=O)(=O)c1cccc2ccccc12 (stereo not drawn) [III-154]	< 3	+++ (≥350)	< 3	≥ 150
COc1ccc(Br)c2c1C(C(=O)NS(=O)(=O)c1cccnc1OC)CC2 (stereo not drawn) [III-158]	3 to 10	++ (≥150 and <350)	3 to 10	50 to 150
CCOc1ccc(S(=O)(=O)NC(=O)C2CCc3c(Br)ccc(OC)c32)c2ccccc12 (stereo not drawn) [III-161]	3 to 10	++ (≥150 and <350)	3 to 10	< 50
COc1ccc(Br)c2c1C(C(=O)NS(=O)(=O)c1ccc(OC)c3ccccc13)CC2 (stereo not drawn) [III-162]	3 to 10	+++ (≥350)	3 to 10	50 to 150
COc1ccc(Br)c2c1C(C(=O)NS(=O)(=O)c1cccn3cnnc13)CC2 (stereo not drawn) [III-163]	3 to 10	++ (≥150 and <350)	≥ 10	< 50
COc1ccc(-c2cncnc2)c2c1C(C(=O)NS(=O)(=O)c1cccc3ccccc13)CCC2 (stereo not drawn) [III-164]	< 3	+++ (≥350)	< 3	50 to 150

Results, then the molecule that gave them:

EC50 (F508delCFTR [1]) [µM]	Maximum % activity (with co-corrector) (F508delCFTR [1])	EC50 (F508delCFTR [2]) [µM]	Emax (F508delCFTR [2]) [%]	SMILES
< 3	++ (≥150 and <350)	< 3	< 50	CCC1(C(=O)NS(=O)(=O)c2ccc(C)cc2)CCc2c(Cl)cccc21 (stereo not drawn) [III-139]
≥ 10	+ (<150)	≥ 10	< 50	CCC1(C(=O)NS(=O)(=O)Cc2ccccc2)CCc2c(Cl)cccc21 (stereo not drawn) [III-140]
≥ 10	+ (<150)	≥ 10	< 50	CCC1(C(=O)NS(=O)(=O)c2cccc3c2C(=O)N(C)C3=O)CCc2c(Cl)cccc21 (stereo not drawn) [III-141]
3 to 10	++ (≥150 and <350)	3 to 10	< 50	CCC1(C(=O)NS(=O)(=O)c2ccc(OC)cc2)CCc2c(Cl)cccc21 (stereo not drawn) [III-142]
≥ 10	+ (<150)	≥ 10	< 50	CCC1(C(=O)NS(=O)(=O)c2ccc(Oc3ccccc3)cc2)CCc2c(Cl)cccc21 (stereo not drawn) [III-143]
3 to 10	++ (≥150 and <350)	≥ 10	< 50	CCC1(C(=O)NS(=O)(=O)c2cccc(C#N)c2)CCc2c(Cl)cccc21 (stereo not drawn) [III-144]
3 to 10	++ (≥150 and <350)	3 to 10	< 50	CCC1(C(=O)NS(=O)(=O)c2cc[nH]n2)CCc2c(Cl)cccc21 (stereo not drawn) [III-145]
3 to 10	++ (≥150 and <350)	3 to 10	< 50	O=C(NS(=O)(=O)c1cccc2ccccc12)C1(Cc2ccccn2)CCc2c(Cl)cccc21 (stereo not drawn) [III-147]
< 3	+ (<150)	≥ 10	< 50	CCC1(C(=O)NS(=O)(=O)c2cccc(Cl)c2C(=O)OC)CCc2c(Cl)cccc21 (stereo not drawn) [III-149]
< 3	++ (≥150 and <350)	3 to 10	50 to 150	CCC1(C(=O)NS(=O)(=O)c2cccc(Cl)c2C)CCc2c(Cl)cccc21 (stereo not drawn) [III-156]
3 to 10	+++ (≥350)	3 to 10	≥ 150	COc1ccc(Br)c2c1C(C(=O)NS(=O)(=O)c1cccnc1N)CC2 (stereo not drawn) [III-159]
3 to 10	+++ (≥350)	3 to 10	50 to 150	COc1ccc(Br)c2c1C(C(=O)NS(=O)(=O)c1cccc(N)n1)CC2 (stereo not drawn) [III-160]
